Assay results from ChEMBL document CHEMBL1201862, “PubChem BioAssay data set” (2004).
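Test compounds were applied to cells in 96-well plates for 48 hours at 5 doses. Here, GI50 denotes the concentration required for 50% inhibition of growth.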 The source made the active and inactive calls. Cut-off read from the data, not from the text of the source: active = GI50 up to about 1.1 µM and inactive = higher.

Legend:
Test in all cases: DTP human tumour cell line panel, 48 h
HL-60 = system: HL-60
OVCAR-3 = system: OVCAR-3
UO-31 = system: UO-31
HCT-116 = system: HCT-116
SK-MEL-28 = system: SK-MEL-28
HT-29 = system: HT-29
KM12 = system: KM12
TK-10 = system: TK-10
RPMI-8226 = system: RPMI-8226
SN12C = system: SN12C
UACC-257 = system: UACC-257
OVCAR-5 = system: OVCAR-5
Malme-3M = system: Malme-3M
SF-539 = system: SF-539
RXF 393 = system: RXF 393
SNB-75 = system: SNB-75
NCI-H460 = system: NCI-H460
UACC-62 = system: UACC-62
CAKI-1 = system: CAKI-1
786-0 = system: 786-0

| SMILES | GI50 (HL-60) | GI50 (OVCAR-3) | GI50 (UO-31) | GI50 (HCT-116) | GI50 (SK-MEL-28) | GI50 (HT-29) | GI50 (KM12) | GI50 (TK-10) | GI50 (RPMI-8226) | GI50 (SN12C) | GI50 (UACC-257) | GI50 (OVCAR-5) | GI50 (Malme-3M) | GI50 (SF-539) | GI50 (RXF 393) | GI50 (SNB-75) | GI50 (NCI-H460) | GI50 (UACC-62) | GI50 (CAKI-1) | GI50 (786-0) |
| --- | --- | --- | --- | --- | --- | --- | --- | --- | --- | --- | --- | --- | --- | --- | --- | --- | --- | --- | --- | --- |
| C=CC[N+]12CN3CN(CN(C3)C1)C2 | 35.3 µM (inactive) | 43.9 µM (inactive) | 21 µM (inactive) | 19 µM (inactive) | 21.3 µM (inactive) | 17.9 µM (inactive) | 29 µM (inactive) | 22.6 µM (inactive) | 4.14 µM (inactive) | 23.4 µM (inactive) | 24.5 µM (inactive) | 23.2 µM (inactive) | 18.7 µM (inactive) | 16.9 µM (inactive) | 18.5 µM (inactive) | 25.1 µM (inactive) | 24.2 µM (inactive) | 27.4 µM (inactive) | 20.5 µM (inactive) | – |
| S=P1(N2CCCCC2)Oc2ccc3ccccc3c2-c2c(ccc3ccccc23)O1 | > 100 µM (inactive) | 34.9 µM (inactive) | > 80.7 µM (inactive) | > 82.2 µM (inactive) | > 100 µM (inactive) | > 76.2 µM (inactive) | > 100 µM (inactive) | – | > 91.2 µM (inactive) | > 100 µM (inactive) | > 100 µM (inactive) | > 100 µM (inactive) | > 46 µM (inactive) | 71.1 µM (inactive) | > 89.7 µM (inactive) | 31.8 µM (inactive) | 33.6 µM (inactive) | 94.8 µM (inactive) | > 44.6 µM (inactive) | – |
| O=C1/C(=C/c2ccc(Oc3ccccc3)cc2)N=C(c2ccccc2)N1c1ccc(S(=O)(=O)Nc2nccs2)cc1 | 6.73 µM (inactive) | 17.3 µM (inactive) | 21.8 µM (inactive) | 10.7 µM (inactive) | 22.8 µM (inactive) | 9.68 µM (inactive) | 5.15 µM (inactive) | 26.8 µM (inactive) | 6.34 µM (inactive) | 39.8 µM (inactive) | 21.3 µM (inactive) | 40.4 µM (inactive) | 19.1 µM (inactive) | 31.5 µM (inactive) | 17 µM (inactive) | 7.53 µM (inactive) | 25.5 µM (inactive) | 19.5 µM (inactive) | 21.7 µM (inactive) | 31.4 µM (inactive) |
| CCOC(=O)/C(=C/c1ccc[nH]1)P(=O)(OCC)OCC | > 100 µM (inactive) | > 100 µM (inactive) | > 100 µM (inactive) | > 100 µM (inactive) | > 100 µM (inactive) | > 100 µM (inactive) | > 100 µM (inactive) | > 100 µM (inactive) | > 100 µM (inactive) | > 100 µM (inactive) | > 100 µM (inactive) | > 100 µM (inactive) | > 100 µM (inactive) | > 100 µM (inactive) | > 100 µM (inactive) | 77.6 µM (inactive) | > 100 µM (inactive) | > 100 µM (inactive) | > 100 µM (inactive) | > 100 µM (inactive) |
| C(=C/c1nc2ccccc2o1)/c1ccc2c(c1)OCO2 | 16.8 µM (inactive) | 12.1 µM (inactive) | 17 µM (inactive) | 12.3 µM (inactive) | 24.9 µM (inactive) | 12.8 µM (inactive) | 4.91 µM (inactive) | – | 26.4 µM (inactive) | 58.6 µM (inactive) | 12.7 µM (inactive) | > 36.6 µM (inactive) | 27.3 µM (inactive) | 16.6 µM (inactive) | 14.7 µM (inactive) | 21.1 µM (inactive) | 21.2 µM (inactive) | 2.62 µM (inactive) | 9.82 µM (inactive) | – |
| O=C1NC2OCC(O)C(O1)C2O (configuration not stated) | > 100 µM (inactive) | > 100 µM (inactive) | > 100 µM (inactive) | – | > 100 µM (inactive) | > 100 µM (inactive) | > 100 µM (inactive) | > 100 µM (inactive) | > 100 µM (inactive) | > 100 µM (inactive) | > 100 µM (inactive) | > 100 µM (inactive) | > 100 µM (inactive) | > 100 µM (inactive) | > 100 µM (inactive) | > 100 µM (inactive) | > 100 µM (inactive) | > 100 µM (inactive) | > 100 µM (inactive) | > 100 µM (inactive) |
| Cc1nc2ccc(S(=O)(=O)Nc3nccs3)cc2c(=O)n1NS(=O)(=O)c1nccs1 | 79.1 µM (inactive) | > 100 µM (inactive) | 13.7 µM (inactive) | – | > 100 µM (inactive) | 41.5 µM (inactive) | 64.9 µM (inactive) | > 100 µM (inactive) | > 100 µM (inactive) | > 100 µM (inactive) | > 100 µM (inactive) | > 100 µM (inactive) | > 100 µM (inactive) | > 100 µM (inactive) | > 100 µM (inactive) | > 100 µM (inactive) | 50.2 µM (inactive) | 72.9 µM (inactive) | > 100 µM (inactive) | – |
| CN(C)CC1CCCC1=O (configuration not stated) | 0.084 µM (active) | 1.51 µM (inactive) | 9.38 µM (inactive) | 0.944 µM (active) | 2.98 µM (inactive) | 0.682 µM (active) | 1.66 µM (inactive) | 2.96 µM (inactive) | 0.0502 µM (active) | 1.06 µM (active) | 1.5 µM (inactive) | 5.42 µM (inactive) | 1.02 µM (active) | 7.89 µM (inactive) | 2.55 µM (inactive) | 3.78 µM (inactive) | 10.5 µM (inactive) | 4.37 µM (inactive) | 0.139 µM (active) | 7.53 µM (inactive) |
| COc1cc(C2C(C(=O)NCc3ccccc3)=C(C)NC(C)=C2C(=O)NCc2ccccc2)ccc1O | 25.4 µM (inactive) | 29.8 µM (inactive) | 65.3 µM (inactive) | 44.7 µM (inactive) | 34.5 µM (inactive) | 21.5 µM (inactive) | – | 35.2 µM (inactive) | 23 µM (inactive) | 31.5 µM (inactive) | 44.1 µM (inactive) | 57.5 µM (inactive) | > 100 µM (inactive) | 20.9 µM (inactive) | 28.8 µM (inactive) | 44.9 µM (inactive) | 24.3 µM (inactive) | 21.8 µM (inactive) | 24.9 µM (inactive) | 46.2 µM (inactive) |
| CCCCCCCC(=O)OCC1OC(n2cc(F)c(=O)[nH]c2=O)C(NC(=O)OCc2ccccc2)C(OC(=O)CCCCCCC)C1O (configuration not stated) | 16.5 µM (inactive) | 20.6 µM (inactive) | 0.106 µM (active) | 30.1 µM (inactive) | 36.5 µM (inactive) | 29.8 µM (inactive) | 35.3 µM (inactive) | 38 µM (inactive) | 16.6 µM (inactive) | 14.1 µM (inactive) | 39.7 µM (inactive) | – | 17.9 µM (inactive) | 26.3 µM (inactive) | 20.2 µM (inactive) | 24.5 µM (inactive) | 35.5 µM (inactive) | 19.5 µM (inactive) | 19.2 µM (inactive) | 23.5 µM (inactive) |
| O=C1NC2(CCCCC2)C2CCCCC(O)C12 (configuration not stated) | > 100 µM (inactive) | > 100 µM (inactive) | > 100 µM (inactive) | > 100 µM (inactive) | > 100 µM (inactive) | > 100 µM (inactive) | > 100 µM (inactive) | > 100 µM (inactive) | > 100 µM (inactive) | > 100 µM (inactive) | > 100 µM (inactive) | > 100 µM (inactive) | > 100 µM (inactive) | > 100 µM (inactive) | > 100 µM (inactive) | 57.1 µM (inactive) | > 100 µM (inactive) | > 100 µM (inactive) | > 100 µM (inactive) | > 100 µM (inactive) |
| CCCCCCc1cc2cc(C(=O)Nc3nc(C45CC6CC(CC(C6)C4)C5)cs3)c(=O)oc2cc1O | 5.18 µM (inactive) | 13.1 µM (inactive) | 24.5 µM (inactive) | 3.56 µM (inactive) | 29.3 µM (inactive) | 13.3 µM (inactive) | 11 µM (inactive) | 11.3 µM (inactive) | 11.2 µM (inactive) | 5.53 µM (inactive) | 24.6 µM (inactive) | 16 µM (inactive) | 19.7 µM (inactive) | 10.8 µM (inactive) | 8.24 µM (inactive) | 7.62 µM (inactive) | 5.16 µM (inactive) | 4.65 µM (inactive) | 8.81 µM (inactive) | 12.1 µM (inactive) |
| Cc1ccc(N2Cc3c(ccc4ccccc34)OP2(=O)Oc2ccc(Cl)c(C)c2)cc1 (configuration not stated) | > 100 µM (inactive) | > 31.6 µM (inactive) | 20.3 µM (inactive) | 26.1 µM (inactive) | > 100 µM (inactive) | > 95.1 µM (inactive) | > 84.3 µM (inactive) | – | 10 µM (inactive) | > 100 µM (inactive) | > 100 µM (inactive) | > 100 µM (inactive) | > 100 µM (inactive) | > 100 µM (inactive) | > 79.4 µM (inactive) | > 100 µM (inactive) | 67.5 µM (inactive) | > 100 µM (inactive) | > 100 µM (inactive) | – |
| CCC1=C(C(C)=O)[C@@H]2CCCCC(C(=O)OC)[C@@H]2C1=O (some centres not stated) | > 100 µM (inactive) | – | > 100 µM (inactive) | > 100 µM (inactive) | > 100 µM (inactive) | > 100 µM (inactive) | > 100 µM (inactive) | > 100 µM (inactive) | > 100 µM (inactive) | > 100 µM (inactive) | > 100 µM (inactive) | > 100 µM (inactive) | > 100 µM (inactive) | > 100 µM (inactive) | > 100 µM (inactive) | > 100 µM (inactive) | > 100 µM (inactive) | > 100 µM (inactive) | > 100 µM (inactive) | > 100 µM (inactive) |
